According to paper PMC11111408, “Concurrent inhibition of oncogenic and wild-type RAS-GTP for cancer therapy” (Nature, 2024):
“And” between values parts separate entries of the source, which are not always exact repeats. Equal values may be shown once.

Columns and labels:
[1] = test system: MRAS and other RAS family small GTPase proteins; assay: Cellular BRET between CYPA and small GTPases (RIT1, MRAS, RRAS, RRAS2, Rheb); assay type: cell-based, human; details: cellular BRET with CYPA
[2] = test system: Capan-1, SW620, AsPC-1, HPAC, NCI-H358, PSN1, HUPT3, HCT 116, Hs 766T, SK-MEL-30, KU1919, NCI-H1975, A375; assay: pERK (AlphaLISA) in human cancer cell lines; assay type: cell-based
Excerpt: Data points show biological duplicates normalized to vehicle control. […] Data points show biological duplicates normalized to vehicle control from 1 of 2–26 independent experiments. Source Data

KRAS–RALGDS [3] = target: T1, KRAS–RALGDS (Homo sapiens, UniProt P01116, G12D); assay: Cellular nano-BRET, full length RALGDS binding to KRAS G12C, G12D, G12V; assay type: cell-based; details: KRAS G12D, in the presence of CYPA, single replicates
T1 construct: expressed in transfected cells; host or cells: U2OS

KRAS–RALGDS [4] = target: T2, KRAS–RALGDS (Homo sapiens, UniProt P01116, G12C); assay: as above; assay type: cell-based; details: KRAS G12C, in the presence of CYPA, single replicates
T2 construct: expressed in transfected cells; host or cells: U2OS

KRAS–RALGDS [5] = target: T3, KRAS–RALGDS (Homo sapiens, UniProt P01116, G12V); assay: as above; assay type: cell-based; details: KRAS G12V, in the presence of CYPA, single replicates
T3 construct: expressed in transfected cells; host or cells: U2OS

CCn1c(-c2cc(N3CCN(C4CC4)CC3)cnc2[C@H](C)OC)c2c3cc(ccc31)-c1csc(n1)C[C@H](NC(=O)[C@H]1[C@@H]3COC[C@@H]31)C(=O)N1CCC[C@H](N1)C(=O)OCC(C)(C)C2 [RMC-7977]
tri-complex formation potency for KRAS versus MRAS and other RAS family small GTPases [1]: more than tenfold more potent
pERK of RAS mutant and RAS WT cell lines treated with RMC-7977 ([2]; CAPAN1, RMC-7977 1.52 nM): 19.123 and 19.8052
pERK of RAS mutant and RAS WT cell lines treated with RMC-7977 ([2]; CAPAN1, RMC-7977 4.57 nM): 1.955 and 2.566
pERK of RAS mutant and RAS WT cell lines treated with RMC-7977 ([2]; HUPT3, RMC-7977 0.05 nM): 94.4091 and 94.8337 and 88.9674 and 91.9384 and 90.4786 and 91.137
pERK of RAS mutant and RAS WT cell lines treated with RMC-7977 ([2]; HUPT3, RMC-7977 0.46 nM): 54.494 and 62.3496 and 67.5543 and 72.6449 and 54.2163 and 63.5857
pERK (normalised response) ([2]; NCIH358, RMC-7977 0.05 nM): 95.3351 and 101.687
pERK (normalised response) ([2]; NCIH358, RMC-7977 0.46 nM): 100.659 and 104.04
pERK (normalised response) ([2]; NCIH358, RMC-7977 4.12 nM): 12.3735 and 16.2725
pERK (normalised response) ([2]; PSN1, RMC-7977 0.05 nM): 88.9166 and 100.089
pERK (normalised response) ([2]; RMC-7977 123.46 nM, replicates): -0.725 and -0.593 and -0.5397 and -0.3753 and -0.4309 and -0.2687 and -0.4302 and -0.02426 and 0.06955 and 0.1569 and -0.4286 and -0.3396 and -0.5772 and -0.5479 and -0.6628 and -0.5005 and -0.5749 and -0.2908
pERK (normalised response) ([2]; RMC-7977 370.39 nM, replicates): -0.7644 and -0.7111 and -0.5907 and -0.5768 and -0.4216 and -0.3892 and -0.6033 and -0.5758 and -0.3364 and 0.5402 and -0.5111 and -0.3801 and -0.726 and -0.7102 and -0.7981 and -0.753 and -0.6335 and -0.6222
pERK (normalised response) ([2]; RMC-7977 1111.14 nM, replicates): -0.8316 and -0.7436 and -0.6671 and -0.6486 and -0.6046 and -0.6033 and -0.5758 and -0.3138 and -0.0744 and -0.5014 and -0.4707 and -0.7846 and -0.6967 and -0.78 and -0.7169 (2×) and -0.6921
pERK (normalised response) ([2]; RMC-7977 3333.41 nM, replicates): -0.871 and -0.8455 and -0.7297 and -0.8432 and -0.7667 and -0.6405 and -0.6259 and -0.2555 and 0.2652 and -0.5936 and -0.3995 and -0.7395 and -0.6651 and -0.762 and -0.5906 and -0.7169 and -0.656
pERK (normalised response) ([2]; RMC-7977 10000.00 nM, replicates): -0.9243 and 0.3336 and -0.8571 and 0.183 and -0.9196 and -0.05096 and -0.6324 and -0.02426 and -0.4949 and 0.5774 and -0.5725 and 0.8637 and -0.8004 and 0.4058 and -0.7439 and 0.02254 and -0.7755 and 0.9604
Cellular nano-BRET of RALGDS (full-length) binding to KRAS (KRAS–RALGDS [3]; RMC-7977 12.346 nM): 21.965 and 22.2278 and 22.7225 and 21.1836 and 19.9465 and 19.3916
Cellular nano-BRET of RALGDS (full-length) binding to KRAS (KRAS–RALGDS [3]; RMC-7977 37.037 nM): 15.9727 and 15.3384 and 16.4816 and 15.5961 and 16.3731 and 14.4955
Cellular nano-BRET of RALGDS (full-length) binding to KRAS (KRAS–RALGDS [3]; RMC-7977 111.111 nM): 13.7998 and 12.0846 and 13.3529 and 13.1019 and 13.0482 and 11.2251
Cellular nano-BRET of RALGDS (full-length) binding to KRAS (KRAS–RALGDS [3]; RMC-7977 333.333 nM): 11.2999 and 11.1999 and 10.8448 and 10.0467 and 10.686 and 10.4797
Cellular nano-BRET of RALGDS (full-length) binding to KRAS (KRAS–RALGDS [3]; RMC-7977 1000.000 nM): 10.2193 and 10.47 and 10.4459 and 10.0036 and 10.1066 and 10.1313
Cellular nano-BRET of RALGDS (full-length) binding to KRAS (KRAS–RALGDS [4]; RMC-7977 4.115 nM): 18.1963 and 16.034 and 17.4595 and 15.2439 and 16.9748 and 14.2583
Cellular nano-BRET of RALGDS (full-length) binding to KRAS (KRAS–RALGDS [4]; RMC-7977 12.346 nM): 13.0313 and 11.9807 and 11.9885 and 11.6119 and 11.6125 and 11.8549
Cellular nano-BRET of RALGDS (full-length) binding to KRAS (KRAS–RALGDS [4]; RMC-7977 37.037 nM): 11.0793 and 10.028 and 11.2271 and 10.7778 and 11.2352 and 10.211
Cellular nano-BRET of RALGDS (full-length) binding to KRAS (KRAS–RALGDS [4]; RMC-7977 111.111 nM): 10.2935 and 10.375 and 9.345 and 10.0632 and 10.0122 and 10.2781
Cellular nano-BRET of RALGDS (full-length) binding to KRAS (KRAS–RALGDS [4]; RMC-7977 333.333 nM): 10.1394 and 10.5924 and 9.785 and 10.0763 and 9.658 and 9.979
Cellular nano-BRET of RALGDS (full-length) binding to KRAS (KRAS–RALGDS [4]; RMC-7977 1000.000 nM): 10.8628 and 9.92 and 10.139 and 10.0712 and 10.3509 and 9.953
Cellular nano-BRET of RALGDS (full-length) binding to KRAS (KRAS–RALGDS [5]; RMC-7977 4.115 nM): 30.1314 and 27.6913 and 29.7303 and 27.1744
Cellular nano-BRET of RALGDS (full-length) binding to KRAS (KRAS–RALGDS [5]; RMC-7977 12.346 nM): 22.418 and 20.7842 and 21.8208 and 20.4059 and 22.2654 and 20.6652
Cellular nano-BRET of RALGDS (full-length) binding to KRAS (KRAS–RALGDS [5]; RMC-7977 37.037 nM): 15.6693 and 15.6351 and 15.326 and 16.1305 and 15.8324 and 15.892
Cellular nano-BRET of RALGDS (full-length) binding to KRAS (KRAS–RALGDS [5]; RMC-7977 111.111 nM): 12.652 and 12.1384 and 12.5044 and 12.7423 and 12.6511 and 12.657
Cellular nano-BRET of RALGDS (full-length) binding to KRAS (KRAS–RALGDS [5]; RMC-7977 333.333 nM): 11.4911 and 11.1105 and 10.9221 and 11.2754 and 11.3448 and 11.4972
Cellular nano-BRET of RALGDS (full-length) binding to KRAS (KRAS–RALGDS [5]; RMC-7977 1000.000 nM): 11.0787 and 10.8666 and 11.0137 and 11.1587 and 10.8841 and 10.9076
